Source: patent publication US11285169B2, “Methods for modulating chemotherapeutic cytotoxicity” (The United States of America, as represented by the …, priority 2013, dated 2022)

Legend:
wild type Jurkat cells = test system: wild type Jurkat cells
Protocol: (§1) Wild type or CD47 null Jurkat T cells were plated at a density of 7×10^3/well in 96 well plates or 500 cells/well in 1536 well plates. Cells were treated with increasing amounts of doxorubicin. Cell viability was measured 48 or 72 hours after treatment by MTS reduction or using CellTiter-Glo® cell viability assay (Promega, Madison Wis.).
(§2) Wild type or CD47 null Jurkat cells were plated at a density of 7×10^3/well in 96 well plates. Cells were treated with 10 μg/ml 5-FU or […] camptothecin. Cell viability was measured 72 hours after treatment by MTS reduction.

CD47 null Jurkat cells = test system: CD47 null Jurkat cells
Protocol: as §1, §2

Atg5 and Atg7 = assay: Autophagy gene expression in hearts of WT and CD47 null mice; type: in vivo, mouse; conditions: 24 hours of treatment
Protocol: Samples were collected after 24 hours of treatment.
WT and CD47 null mice were treated with doxorubicin to determine effects on autophagy gene expression.

4T1 breast cancer cells [1] = assay: Cell viability by MTS reduction, 4T1 cells with or without CD47 morpholino; type: cell-based, mouse; conditions: 10 μM CD47 morpholino 48 hours, doxorubicin 72 hours
Protocol: Cells were plated in the presence or absence of 10 μM CD47 morpholino. After 48 hours, cells were treated with the indicated amounts of doxorubicin (10 μg/ml in FIGS. 7B and C). Cell viability was measured 72 hours after treatment by MTS reduction (FIGS. 7A and D) or 24 hours after treatment by lactate dehydrogenase (LDH) release (FIGS. 7B and C). * p<0.001. Control cells were untreated and Endoporter indicates treatment with vehicle without morpholino in FIGS. 7B and C.
4T1 breast cancer cells were treated with CD47 morpholino and treated with increasing concentrations of doxorubicin.

4T1 breast cancer cells [2] = assay: Oxygen consumption rate and extracellular acidification rate, XF24 analyzer, 4T1 cells; type: cell-based, mouse; conditions: for extracellular acidification rate (ECAR): 4T1B cells, same treatments as OCR; for oxygen consumption rate (OCR): 4T1 cells, CD47 morpholino 10 μM 48 hours, doxorubicin 10 μg/ml 1 hour
Protocol: (§3) 4T1 breast cancer cells or B16 melanoma cells (2×10^4 cells) were plated in the presence or absence of CD47 morpholino (10 μM). After a 48 hour period of incubation, cells were treated with doxorubicin for 1 hour (10 μg/ml). OCR and ECAR were measured using an XF24 analyzer (Seahorse Bioscience, N. Billerica, Mass.).
(§4) To start elucidating the molecular mechanism of breast cancer sensitization to anthracycline therapy with CD47 blockade oxygen consumption rate (OCR) was tested. OCR is a measurement of mitochondrial respiration and is extremely sensitive to changes in metabolic demand (Tao et al., Anal. Biochem. 381:43-52, 2008). Increased OCR is an indicator of mitochondrial dysfunction in transformed cells associated with tumor aggressiveness and resistance to therapy (Vaupel and Mayer, Int. J. Biochem. Cell Biol. 44:1477-1481, 2012). To measure OCR, 4T1 breast cancer cells or B16 melanoma cells were plated in 24-well plates using the XF24 flux analyzer (Seahorse Bioscience). Cells were exposed to known mitochondrial poisons (oligomicin, carbonilcyanide p-triflouromethoxy-phenylhydrazone FCCP, or […]) to determine basal and maximal OCR.
It is well known that cancer cells show increased glycolytic flux. […] The extracellular acidification rate (ECAR) was measured in 4T1B cells using the XF24 flux analyzer following the same treatments stated above.

[3] = test system: Glut-1 glucose transporter; assay: Glut-1 expression in tumors by western blot; type: in vivo, mouse; conditions: western blot of excised tumors
Protocol: Glucose uptake was measured 24 hours after treatment by adding 2-NBDG, which is a fluorescently labeled deoxyglucose analog that is used primarily to directly monitor glucose uptake by living cells. This confirmed that the combination treatment modified glucose metabolism to sensitize cells to Dox treatment (FIG. 10). Furthermore, blockade of CD47 in combination with dox decreased expression of the Glut-1 glucose transporter in vivo (FIG. 11). Tumors of mice were exised and protein expression was determined by western blot hybridization. Expression of Glut-1 was not affected by treatment with saline, doxorubicin or CD47 morpholino (CD47M) alone. […] Glut-1 facilitates the transport of glucose in cells and is a poor prognostic factor in breast cancer and other cancer types.

lung tissue = conditions: mouse, in vivo
cardiac tissue = conditions: mouse, in vivo
Excerpt: Hearts were collected from mice at the end of the tumor studies after four rounds of weekly doxorubicin treatment in the presence or absence of CD47 blockade. Sections were paraffin embedded and stained with H&E to determine tissue histology.
Tissue sections were subjected to TUNEL staining to detect cell death.

PINK = PINK immunostaining of tumor and heart sections; type: in vivo, mouse; conditions: heart
Protocol: Briefly, slides were deparaffinized in xylene and rehydrated in graded alcohol. Antigen retrieval was performed using microwave antigen retrieval method with Target Retrieval Solution, pH 6.1 (Dako, Carpinteria, Calif.). […] Slides were incubated with respective antibodies. Sections were treated with streptavidin-biotin and DAB (3,3-diaminobenzidine) was used as chromogen. Hematoxylin was used for counterstaining. The intensity of the staining was evaluated under light microscopy.
Tissue sections from the initial tumor model were immune-stained for PINK.

4T1 breast tumors = assay: 4T1 breast cancer cells in mammary fat pad of Balb/c mice: tumor growth, weight, lung metastasis; type: in vivo, mouse; conditions: for tumor weight at end of study: excised tumors; for tumor growth (tumor volume): weekly treatment, followed for 30 days, Dox i.v., CD47 M i.p. 48 hours before
Protocol: Balb/c mice were injected with 5×10^3 4 T1 breast cancer cells in the mammary fat pad. Tumors were left untreated, treated with 100 μl of 10 μg/mL doxorubicin (Dox) or with 10 μg/mL Dox in combination with 10 μM CD47 Morpholino (CD47 M). Doxorubicin treatment was given intravenously weekly. Treatment with CD47 M was given intraperitoneally 48 hours prior to doxorubicin injection.
4T1B breast cancer cells were implanted in the mammary fat-pad of Balb/C mice. The mice were treated weekly with saline, doxorubicin, CD47 M, or the combination of CD47 M with doxorubicin. Tumor growth was measured using calipers and was followed for 30 days. Treatment with CD47 morpholino was done two days prior to each treatment with doxorubicin for four weeks.
Tumors were excised at the end of the study and weighed. Tumors of mice treated with saline tripled in size (FIG. 1B).
The 4T1 breast cancer model is a well known model for metastasis of orthotopic breast tumors to lung and other organs. Mice were injected in the mammary fat pad with 4T1 cells. CD47 morpholino was administered intraperitoneally at a dose of 10 μM per mouse. Doxorubicin was adminstered intravenously at a dose of 10 mg/kg. The CD47 morpholino was administered weekly and the Doxorubicin administration was done weekly 48 hours after CD47 treatment. Five mice per group were treated. Lungs were exised, paraffin embedded, and hematoxylin and eosin stain was used to determine tissue structure.

PINK and PARKIN = PINK and PARKIN gene expression by qRT-PCR in 4T1 cells; type: cell-based, mouse; conditions: single agents
Protocol: Autophagy can promote either survival or death of tissue. Selective mitochondrial turnover by mitophagy in tumor tissue can shift this pathway to a pro-death response (Gargini et al., Autophagy 7:466-476, 2011). To further understand the mechanism of mitophagy in breast cancer cells, 4T1 breast cancer cells were plated and treated with CD47 morpholino for 48 hours. […] Gene expression was determined by qRT-PCR.

B16 melanoma cells = assay: Oxygen consumption rate, XF24 analyzer, B16 cells; type: cell-based, mouse; conditions: CD47 morpholino 10 μM 48 hours, doxorubicin 10 μg/ml 1 hour
Protocol: as §3, §4

CD47 = assay: Western blot of CD47 protein in tumors; type: in vivo, mouse; conditions: 48 hours after treatment

Compound | cytotoxicity (wild type Jurkat cells; human) [%] | cytotoxicity (CD47 null Jurkat cells; human) [%] | Atg5 and Atg7 mRNA levels in hearts (Atg5 and Atg7; CD47 null mice) | Atg5 mRNA level in hearts (Atg5 and Atg7; WT mice) | cell viability (4T1 breast cancer cells [1]) | extracellular acidification rate (ECAR) (4T1 breast cancer cells [2]) | oxygen consumption rate (OCR) (4T1 breast cancer cells [2]) | Glut-1 expression in tumors [3] | lung tissue condition / fibrosis (lung tissue) | cardiac tissue histology (H&E) (cardiac tissue) | cell death in cardiac tissue (TUNEL staining) (cardiac tissue) | PINK expression in hearts (PINK) | cell viability (wild type Jurkat cells; WT Jurkat T cells, increasing concentration of doxorubicin, 72 hours) | cell viability (CD47 null Jurkat cells; CD47 deficient Jurkat T cells, increasing concentration of doxorubicin, 72 hours) | tumor weight at end of study (4T1 breast tumors) | tumor growth (tumor volume) (4T1 breast tumors) | PINK and PARKIN gene expression (in words) (PINK and PARKIN) | oxygen consumption rate (OCR) (B16 melanoma cells) | CD47 protein in tumors (CD47)
CC[C@@]1(O)C(=O)OCc2c1cc1n(c2=O)Cc2cc3ccccc3nc2-1 [Camptothecin] | 79 | 56 |  |  |  |  |  |  |  |  |  |  |  |  |  |  |  |  | 
COc1cccc2c1C(=O)c1c(O)c3c(c(O)c1C2=O)C[C@@](O)(C(=O)CO)C[C@@H]3O[C@H]1C[C@H](N)[C@H](O)[C@H](C)O1 [Doxorubicin] |  |  | markedly increased | slight reduction of Atg5 | reduction in cell viability | high acidification in the media | showed the same pattern | not affected | less fibrosis | characteristic degeneration of cardiac muscle | high TUNEL positive staining | No change in PINK expression | decreased viability | dose-dependent protection | reduction in tumor weight | slightly delayed tumor growth | minimal effects | showed the same pattern | 
CD47 morpholino: antisense morpholino oligonucleotide complementary to human and murine CD47, CGTCACAGGCAGGACCCACTGCCCA (SEQ ID NO: 3) (all phosphorodiamidate morpholino (PMO)) |  |  |  |  |  | slight decrease in the ECAR | caused a reduction in OCR | not affected |  |  |  |  |  |  | reduction in tumor weight | slightly delayed tumor growth | minimal effects | caused a reduction in OCR | decrease in CD47 protein
